Biological target: T1, dnHEM1 (synthetic construct, UniProt Z9V042XZY6)
T1 construct: de novo alpha-helical closed solenoid (toroid) from designed scaffold PDB 4YXX, redesigned with Rosetta, surface desymmetrized by K29W and K165Y (already part of dnHEM1); expressed in E. coli; monomer
T1 sequence (Z9V042XZY6 1-210): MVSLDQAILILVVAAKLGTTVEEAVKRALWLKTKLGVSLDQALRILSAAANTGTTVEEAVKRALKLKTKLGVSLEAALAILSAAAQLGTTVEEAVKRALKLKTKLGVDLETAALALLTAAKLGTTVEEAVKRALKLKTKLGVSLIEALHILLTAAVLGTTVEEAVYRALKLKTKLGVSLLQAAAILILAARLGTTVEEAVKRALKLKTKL
Assay: UV/Vis titration of hemin into apo-protein, absorbance at […] nm
Format: binding

- Kd: 2.5 ± 1.2 nM
SMILES: C=CC1=C(C)C2=Cc3c(C=C)c(C)c4[n]3[Fe]([Cl])[n]3c(c(C)c(CCC(=O)O)c3=CC3=NC(=C4)C(C)=C3CCC(=O)O)=CC1=N2 [hemin]
